Assay results as given in US20240360122A1, “POLYMORPHIC FORMS AND SALTS OF A GLP-1R AGONIST” (Terns (Suzhou) Biotechnology Co., Ltd., priority 2023, published 2024).
“Also recorded” adds a separate entry of the source. Counter-ions that a name gives are not always drawn. Like-named read-outs stand apart in the source and are kept apart here.

What was measured:
Format in all cases: physicochemical
[1] = Kinetic solubility in water and bio-relevant media (SGF, FaSSIF, FeSSIF) at 37° C.; conditions: for S: Solubility: calculated by freeform; for FC: Form change: residual solids by XRPD; for solubility at 2 h: highest solubility
Method in brief: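 Compound rolled at 37 °C (~25 rpm) in water, SGF (pH 1.8, NaCl, Triton X-100), FaSSIF (pH 6.5 phosphate, SIF powder) or FeSSIF (pH 5.0 acetate, SIF powder). Samples at 1, 2, 4 and 24 h were centrifuged and 0.45 μm-filtered; filtrate concentration and pH measured, residual solid checked by XRPD.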

[2] = pH solubility in pH 1.0-8.0 buffers at RT; conditions: thermodynamic from solid; for solubility: pH buffers, 2 and 24 hours
Protocol: The procedures were listed below:
1. […] Add 2 ml, of the corresponding medium.
2. Mixed well and stirred at RT (1000 rpm). Check the pH and adjust it back to the target pH after dosing.
3. Sampled after 2 hours and 24 hours. The supernatant was isolated by centrifugation (12000 rpm, 5 min) and filtration (0.22 μm, PTFE) for pH and HPLC test.

[3] = Solubility of Meglumine salt Type A in SGF and FaSSIF at 37° C. with adjusting pH to that of the blank medium; conditions: for solubility at 2 h / solubility at 4 h: read-out: S (solubility)
Protocol: Detailed procedures are as follows.
1) Added ˜40 mg of sample into a 5-mL glass vial. Add 4 mL of medium. Adjust pH to 1.8 or 6.5 using HCl (1 M) or NaOH (1 M).
2) Rolled at 37° C. (˜25 rpm). Sample at 1, 2, 4 and 24 hrs.
3) At each time-point, sample 0.8 mL of solution or suspension into a centrifuge tube prior to centrifugation (12000 rpm, 37° C., 5 min) and filtration through 0.45 μm PTFE membrane.
4) Adjusted pH of the rest of suspension to 1.8 or 6.5 using HCl (1 M) or NaOH (1 M).

[4] = Approximate solubility in different solvents at RT
Protocol: For each experiment, approximately 2 mg of sample was added into a 3-mL glass vial. Corresponding solvents were then added stepwise (50/50/200/700/1000 μL) into the vials until the solids were dissolved visually or a total volume of 2 mL was reached. Solubility results summarized in Table 64 to Table 66 were used to guide the solvent selection in polymorph screening design.

[5] = Slurry competition among Meglumine salt Type A/B/C; conditions: slurry competition in DMSO/EtOAc (1:6, v/v), RT and 50° C.
Protocol: The detailed procedures are as following:
Add 1 mL corresponding solvent.
2) Magnetically stir at RT or 50° C. for 1 day. Filter through 0.45 μm PTFE filter to obtain clear solution.
4) Magnetically stir at RT or 50° C. for 1 day. Test XRPD of the wet cake.

[6] = Competitive experiments of Type A and Type B in different solvent system at different temperature; conditions: different ratio of DMSO/EA system at different temperature
[7] = pH 1.8, simulated gastric fluid, thermodynamic from solid, SGF, pH adjusted to 1.8, 37° C., read-out: solubility in SGF
[8] = pH 6.5, thermodynamic from solid, FaSSIF, pH adjusted to 6.5, 37° C., read-out: solubility in FaSSIF

N#Cc1ccc(COc2cccc(C3CCN(Cc4nc5ccc(C(=O)O)cc5n4Cc4cncs4)CC3)n2)c(F)c1 [Meglumine salt Type A]
S: Solubility ([1]; FaSSIF, 37° C., 1 hr): 900 µg/mL
FC: Form change ([1]; FaSSIF, 37° C., 1 hr): Yes
S: Solubility ([1]; FaSSIF, 37° C., 2 hrs): 1300 µg/mL
FC: Form change ([1]; FaSSIF, 37° C., 2 hrs): Yes
S: Solubility ([1]; FaSSIF, 37° C., 4 hrs): 720 µg/mL
FC: Form change ([1]; FaSSIF, 37° C., 4 hrs): Yes
S: Solubility ([1]; FaSSIF, 37° C., 24 hrs): 70 µg/mL
FC: Form change ([1]; FaSSIF, 37° C., 24 hrs): Yes
solubility at 2 h ([1]; FaSSIF, 37 °C, pH 6.5, fassif, thermodynamic from solid, FaSSIF, 37° C., read-out: solubility in FaSSIF): 1300 µg/mL
S: Solubility ([1]; FeSSIF, 37° C., 1 hr): 170 µg/mL
FC: Form change ([1]; FeSSIF, 37° C., 1 hr): Yes
S: Solubility ([1]; FeSSIF, 37° C., 2 hrs): 170 µg/mL
FC: Form change ([1]; FeSSIF, 37° C., 2 hrs): Yes
S: Solubility ([1]; FeSSIF, 37° C., 4 hrs): 86 µg/mL
FC: Form change ([1]; FeSSIF, 37° C., 4 hrs): Yes
S: Solubility ([1]; FeSSIF, 37° C., 24 hrs): 27 µg/mL
FC: Form change ([1]; FeSSIF, 37° C., 24 hrs): Yes
S: Solubility ([1]; H2O, 37° C., 1 hr): >8600 µg/mL
S: Solubility ([1]; H2O, 37° C., 2 hrs): >8900 µg/mL
S: Solubility ([1]; H2O, 37° C., 4 hrs): >8300 µg/mL
S: Solubility ([1]; H2O, 37° C., 24 hrs): 7000 µg/mL
FC: Form change ([1]; H2O, 37° C., 24 hrs): Yes
solubility compared with the other selected salts and Freeform Type C ([1]; H2O, SGF and FaSSIF, 37° C.): higher solubility than other salts and Freeform Type C; also recorded: higher solubility in H2O, SGF and FaSSIF
S: Solubility ([1]; SGF, 37° C., 1 hr): 380 µg/mL
FC: Form change ([1]; SGF, 37° C., 1 hr): Yes
S: Solubility ([1]; SGF, 37° C., 2 hrs): 720 µg/mL
FC: Form change ([1]; SGF, 37° C., 2 hrs): Yes
S: Solubility ([1]; SGF, 37° C., 4 hrs): 680 µg/mL
FC: Form change ([1]; SGF, 37° C., 4 hrs): Yes
S: Solubility ([1]; SGF, 37° C., 24 hrs): 290 µg/mL
FC: Form change ([1]; SGF, 37° C., 24 hrs): Yes
solubility at 2 h ([1]; SGF, 37 °C, pH 1.8, simulated gastric fluid, thermodynamic from solid, SGF, 37° C., read-out: solubility in SGF): 720 µg/mL
form change of residual solids (XRPD) after solubility test ([1]; all the media (H2O, SGF, FaSSIF, FeSSIF), after 24 hrs): form change was observed
Kinetic Solubility ([1]; in H2O, SGF and FaSSIF, comparison among selected salts and Freeform Type C): 1) In H2O, SGF and FaSSIF, Meglumine salt Type A exhibited higher solubility than other salts and Freeform Type C;
solubility ([1]; water, 37 °C, thermodynamic from solid, H2O, at 1, 2 and 4 hrs): > 8300 µg/mL
solubility ([1]; water, 37 °C, thermodynamic from solid, H2O, throughout the 24-hour process): ≥ 7000 µg/mL
solubility at 24 h ([1]; water, 37 °C, water, thermodynamic from solid, H2O, 37° C., at 24 hrs, read-out: solubility in H2O): 7000 µg/mL
solubility at 2 h ([2]; pH 3.5 buffer, pH 3.5, aqueous buffer, LOQ = 0.0001 mg/mL): 21 µg/mL
solubility at 2 h ([2]; pH 4.5 buffer, pH 4.5, aqueous buffer, LOQ = 0.0001 mg/mL): 3.7 µg/mL
solubility at 24 h ([2]; pH 4.5 buffer, pH 4.5, aqueous buffer, 24 Hours, LOQ = 0.0001 mg/mL): 0.1 µg/mL
solubility at 2 h ([2]; pH 5.5 buffer, pH 5.5, aqueous buffer, LOQ = 0.0001 mg/mL): 2.8 µg/mL
solubility ([2]; pH 1, aqueous buffer, pH 1.0 and 8.0 buffers): 150 to 1300 µg/mL
solubility ([2]; pH 2, aqueous buffer, pH 2.0 and 6.8 buffers): 16 to 200 µg/mL
solubility ([2]; pH 3.5, aqueous buffer, pH 3.5, 4.5 and 5.5 buffers): ≤ 21 µg/mL
S (solubility) ([3]; SGF, 37° C., pH adjusted to 1.8, 1 hr): 730 µg/mL
solubility at 2 h ([3]; pH 1.8, simulated gastric fluid, thermodynamic from solid, SGF, 37° C., pH adjusted to 1.8, 2 hrs): 160 µg/mL
solubility at 4 h ([3]; pH 1.8, simulated gastric fluid, thermodynamic from solid, SGF, 37° C., pH adjusted to 1.8, 4 hrs): 120 µg/mL
solubility at 1 h [3, 7]: 730 µg/mL
solubility at 24 h [3, 7]: 140 µg/mL
solubility at 2 h ([3]; pH 6.5, thermodynamic from solid, FaSSIF, 37° C., pH adjusted to 6.5, 2 hrs): 14 µg/mL
solubility at 4 h ([3]; pH 6.5, thermodynamic from solid, FaSSIF, 37° C., pH adjusted to 6.5, 4 hrs): 11 µg/mL
solubility at 1 h [3, 8]: 29 µg/mL
solubility at 24 h [3, 8]: 6 µg/mL
Approximate solubility ([4]; 2-MeTHF, RT): S < 1.0 mg/mL
Approximate solubility ([4]; ACN, RT): S < 1.0 mg/mL
Approximate solubility ([4]; Acetone, RT): S < 1.1 mg/mL
Approximate solubility ([4]; Anisole, RT): S < 1.1 mg/mL
Approximate solubility ([4]; CHCl3, RT): S < 1.0 mg/mL
Approximate solubility ([4]; CPME, RT): S < 1.0 mg/mL
Approximate solubility ([4]; DCM, RT): S < 1.1 mg/mL
Approximate solubility ([4]; EtOAc, RT): S < 1.1 mg/mL
Approximate solubility ([4]; H2O, RT): S > 44.0 mg/mL
Approximate solubility ([4]; IPA, RT): S < 1.1 mg/mL
Approximate solubility ([4]; IPAc, RT): S < 1.0 mg/mL
Approximate solubility ([4]; MIBK, RT): S < 1.0 mg/mL
Approximate solubility ([4]; MTBE, RT): S < 1.0 mg/mL
Approximate solubility ([4]; THF, RT): S < 1.1 mg/mL
Approximate solubility ([4]; Toluene, RT): S < 1.2 mg/mL
Approximate solubility ([4]; n-Heptane, RT): S < 1.0 mg/mL
thermodynamic stability relationship among Meglumine salt forms [5]: thermodynamically more stable anhydrate; also recorded: more thermodynamically stable form; also recorded: thermodynamically more stable form
thermodynamic stability, Type A versus Type B [6]: thermodynamically more stable
